Data on 21 molecules can be found in US11339171B2, “MDM2 inhibitors” (Gan & Lee Pharmaceuticals, priority 2017, dated 2022).

The structures appear in SMILES notation. pIC50: −log10 of the molar value.

Assay [1] relates to human osteosarcoma cell line SJSA-1. The assay is described as follows: Inhibition of proliferation of human osteosarcoma cell line SJSA-1 (DAPI staining, In Cell Analyzer). To be noted: Homo sapiens, SJSA-1, 72 h, read-out: IC50 (nM), inhibitory activity on proliferation of human osteosarcoma cell line SJSA-1, SJSA-1, incubated 72 h.
Another assay deals with T1, MDM2 (Homo sapiens, UniProt Q00987).
T1 construct: made in house
T1 sequence (Q00987 whole entry): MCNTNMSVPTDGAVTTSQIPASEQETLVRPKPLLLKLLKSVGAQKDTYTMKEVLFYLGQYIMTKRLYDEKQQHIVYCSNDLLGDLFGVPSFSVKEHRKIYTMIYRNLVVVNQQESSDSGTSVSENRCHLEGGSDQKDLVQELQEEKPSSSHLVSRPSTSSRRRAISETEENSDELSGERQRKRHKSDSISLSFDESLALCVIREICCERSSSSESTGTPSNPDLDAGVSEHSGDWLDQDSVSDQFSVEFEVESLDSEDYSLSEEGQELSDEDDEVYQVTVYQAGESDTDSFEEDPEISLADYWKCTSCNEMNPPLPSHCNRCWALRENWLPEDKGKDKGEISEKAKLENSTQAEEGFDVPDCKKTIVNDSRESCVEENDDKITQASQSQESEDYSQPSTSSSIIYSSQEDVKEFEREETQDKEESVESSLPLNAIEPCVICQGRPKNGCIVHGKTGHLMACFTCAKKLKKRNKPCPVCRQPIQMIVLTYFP
As to the kind of experiment: Inhibition test of MDM2-P53 (GST-MDM2, Biotin-P53, Anti-GST-Tb, SA-XL665). Type of assay: binding. The essentials:
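Binding was measured by TR-FRET with GST-MDM2 at 4 nM final in PBS with 0.1% BSA, 5 mM DTT and 1 mM AEBSF. Compounds were tested as twelve-point 5-fold dilutions and incubated with the detection mix for 90 min at 25 °C with shaking before plate-reader reading and curve fitting.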

The pIC50 is the IC50 on a negative log10 scale, so that one unit is a factor of ten.

With `CCc1ccc(OC)c(-c2nc3c(n2C(C)C)[C@@]2(C(=O)Nc4cc(Cl)ccc42)N(c2cccc(Cl)c2)C3=O)c1` [Example S-38, (S)-6-chloro-5′-(3-chlorophenyl)-2′-(5-ethyl-2-methoxyphenyl)-3′-isopropyl-3′H-spiro[dihydroindole-3,4′-pyrrolo[3,4-d]imidazole]-2,6′(5′H)-dione], the IC50 in assay [1] came out at 14.7 nM. The molecule also gave a pIC50 against MDM2 of 7.92.

For `COc1ccc(-c2nc3c(n2C(C)C)[C@@]2(C(=O)Nc4cc(Cl)ccc42)N(c2cc(Cl)cn(C)c2=O)C3=O)c(OC)c1` [Example S-39, (S)-6-chloro-5′-(5-chloro-1-methyl-2-oxo-1,2-dihydropyridin-3-yl)-2′-(2,4-dimethoxyphenyl)-3′-isopropyl-3′H-spiro[dihydroindole-3,4′-pyrrolo[3,4-d]imidazole]-2,6′(5′H)-dione], the IC50 in assay [1] was 1180 nM. Besides, the negative logarithm of the IC50 (pIC50) against MDM2 was 8.41.

Regarding `COc1cc(-c2nc3c(n2C(C)C)[C@@]2(C(=O)Nc4cc(Cl)ccc42)N(c2cc(Cl)ccc2C)C3=O)c(OC)cn1` [Example S-40, (S)-6-chloro-5′-(5-chloro-2-methylphenyl)-2′-(2,5-dimethoxypyridin-4-yl)-3′-isopropyl-3′H-spiro[dihydroindole-3,4′-pyrrolo[3,4-d]imidazole]-2,6′(5′H)-dione], in assay [1], the IC50 turned out to be 14.1 nM. Further, the negative-log IC50 (pIC50) on MDM2 was 8.41.

Consider `COc1ncc(-c2nc3c(n2C2CCC2)[C@@]2(C(=O)Nc4cc(Cl)ccc42)N(c2cc(Cl)ccc2C)C3=O)c(OC)n1` [Example S-41, (S)-6-chloro-5′-(5-chloro-2-methylphenyl)-3′-cyclobutyl-2′-(2,4-dimethoxypyrimidin-5-yl)-3′H-spiro[dihydroindole-3,4′-pyrrolo[3,4-d]imidazole]-2,6′(5′H)-dione], for which the IC50 in assay [1] came out at 1210 nM. Moreover, the pIC50 against MDM2 was 6.83.

In the case of `COc1ncc(-c2nc3c(n2C(C)C)[C@@]2(C(=O)Nc4cc(Cl)ccc42)N(c2cc(Cl)cnc2C)C3=O)c(OC)n1` [Example S-42, (S)-6-chloro-5′-(5-chloro-2-methylpyridin-3-yl)-2′-(2,4-dimethoxypyrimidin-5-yl)-3′-isopropyl-3′H-spiro[dihydroindole-3,4′-pyrrolo[3,4-d]imidazole]-2,6′(5′H)-dione], the IC50 in assay [1] stood at 5.6 nM. Further, at MDM2, the pIC50 is 8.82.

Consider `COc1ccccc1-c1nc2c(n1C(C)C)[C@@]1(C(=O)Nc3cc(Cl)ccc31)N(c1cc(Cl)cn(C)c1=O)C2=O` [Example S-43, (S)-6-chloro-5′-(5-chloro-1-methyl-2-oxo-1,2-dihydropyridin-3-yl)-3′-isopropyl-2′-(2-methoxyphenyl)-3′H-spiro[dihydroindole-3,4′-pyrrolo[3,4-d]imidazole]-2,6′(5′H)-dione], for which the IC50 in assay [1] came out at 564 nM. The pIC50 against MDM2 was 8.48.

In the case of `COc1cc(CN(C)C)ccc1-c1nc2c(n1C(C)C)[C@@]1(C(=O)Nc3cc(Cl)ccc31)N(c1cc(Cl)ccc1C)C2=O` [Example S-47, (S)-6-chloro-5′-(5-chloro-2-methylphenyl)-2′-(4-((dimethylamino)methyl)-2-methoxyphenyl)-3′-isopropyl-3′H-spiro[dihydroindole-3,4′-pyrrolo[3,4-d]imidazole]-2,6′(5′H)-dione], the IC50 in assay [1] is 14 nM. On MDM2, the pIC50 was 8.38.

As for `COc1cc(N)ccc1-c1nc2c(n1C(C)C)[C@@]1(C(=O)Nc3cc(Cl)ccc31)N(c1cc(Cl)ccc1C)C2=O` [Example S-49, (S)-2′-(4-amino-2-methoxyphenyl)-6-chloro-5′-(5-chloro-2-methylphenyl)-3′-isopropyl-3′H-spiro[dihydroindole-3,4′-pyrrolo[3,4-d]imidazole]-2,6′(5′H)-dione], in assay [1], the IC50 was found to be 5.92 nM. The same molecule had a pIC50 at MDM2 of 8.76.

For the molecule `COc1ncc(-c2cc3c(n2C(C)C)[C@@]2(C(=O)Nc4cc(Cl)ccc42)N(c2cc(Cl)ccc2C)C3=O)c(OC)n1` [Example S-50, (S)-6-chloro-5′-(5-chloro-2-methylphenyl)-2′-(2,4-dimethoxypyrimidin-5-yl)-1′-isopropyl-1′H-spiro[dihydroindole-3,6′-pyrrolo[3,4-b]pyrrole]-2,4′(5′H)-dione], the IC50 in assay [1] turned out to be 1320 nM. This molecule gave a pIC50 against MDM2 of 7.07.

As to `COc1ncc(-c2nc3c(n2C(C)C)[C@@]2(C(=O)Nc4cc(Cl)ccc42)N(c2cc(C)cc(Cl)c2)C3=O)c(OC)n1` [Example S-51, (S)-6-chloro-5′-(3-chloro-5-methylphenyl)-2′-(2,4-dimethoxypyrimidin-5-yl)-3′-isopropyl-3′H-spiro[dihydroindole-3,4′-pyrrolo[3,4-d]imidazole]-2,6′(5′H)-dione], the IC50 in assay [1] was found to be 62.6 nM. The pIC50 on MDM2 was 8.36.

As to `COc1ccc(-c2nc3c(n2C(C)C)[C@@]2(C(=O)Nc4cc(Cl)ccc42)N(c2cc(Cl)c(=O)n(C)c2)C3=O)c(OC)c1` [Example S-52, (S)-6-chloro-5′-(5-chloro-1-methyl-6-oxo-1,6-dihydropyridin-3-yl)-2′-(2,4-dimethoxyphenyl)-3′-isopropyl-3′H-spiro[dihydroindole-3,4′-pyrrolo[3,4-d]imidazole]-2,6′(5′H)-dione], the IC50 in assay [1] was found to be 467 nM. The pIC50 at MDM2 is 9.06.

As to `COc1ccccc1-c1nc2c(n1C(C)C)[C@@]1(C(=O)Nc3cc(Cl)ccc31)N(c1cc(Cl)c(=O)n(C)c1)C2=O` [Example S-53, (S)-6-chloro-5′-(5-chloro-1-methyl-6-oxo-1,6-dihydropyridin-3-yl)-3′-isopropyl-2′-(2-methoxyphenyl)-3′H-spiro[dihydroindole-3,4′-pyrrolo[3,4-d]imidazole]-2,6′(5′H)-dione], the IC50 in assay [1] stood at 213 nM. Moreover, on MDM2, the pIC50 was 9.08.

On to `CNC(=O)c1ccc(-c2nc3c(n2C(C)C)[C@@]2(C(=O)Nc4cc(Cl)ccc42)N(c2cc(Cl)ccc2C)C3=O)c(OC)c1` [Example S-54, (S)-4-(6-chloro-5′-(5-chloro-2-methylphenyl)-3′-isopropyl-2,6′-dioxo-5′,6′-dihydro-3′H-spiro[dihydroindole-3,4′-pyrrolo[3,4-d]imidazole]-2′-yl)-3-methoxy-N-methylbenzamide], for which the IC50 in assay [1] was 468 nM. Further, the pIC50 against MDM2 is 8.65.

Take `COc1ncc(-c2nc3c(n2C(C)C)[C@@]2(C(=O)Nc4cc(Cl)ccc42)N(c2cccc(C)c2)C3=O)c(OC)n1` [Example S-55, (S)-6-chloro-2′-(2,4-dimethoxypyrimidin-5-yl)-3′-isopropyl-5′-(m-tolyl)-3′H-spiro[dihydroindole-3,4′-pyrrolo[3,4-d]imidazole]-2,6′(5′H)-dione]: the IC50 in assay [1] was found to be 117 nM. This molecule also had a pIC50 against MDM2 of 8.37.

As to `COc1cccc(F)c1-c1nc2c(n1C(C)C)[C@@]1(C(=O)Nc3cc(Cl)ccc31)N(c1cc(Cl)ccc1C)C2=O` [Example S-57, (S)-6-chloro-5′-(5-chloro-2-methylphenyl)-2′-(2-fluoro-6-methoxyphenyl)-3′-isopropyl-3′H-spiro[dihydroindole-3,4′-pyrrolo[3,4-d]imidazole]-2,6′(5′H)-dione], the IC50 in assay [1] stood at 11.8 nM. This molecule also had a pIC50 against MDM2 of 8.52.

Turning to `COc1cc(Cl)cc(N2C(=O)c3nc(-c4cnc(OC)nc4OC)n(C(C)C)c3[C@@]23C(=O)Nc2cc(Cl)ccc23)c1` [Example S-58, (S)-6-chloro-5′-(3-chloro-5-methoxyphenyl)-2′-(2,4-dimethoxypyrimidin-5-yl)-3′-isopropyl-3′H-spiro[dihydroindole-3,4′-pyrrolo[3,4-d]imidazole]-2,6′(5′H)-dione], the IC50 in assay [1] amounted to 50.8 nM. This molecule gave a pIC50 against MDM2 of 7.94.

In the case of `COc1ccc(C)cc1-c1nc2c(n1C(C)C)[C@@]1(C(=O)Nc3cc(Cl)ccc31)N(c1cc(Cl)ccc1C)C2=O` [Example S-62, (S)-6-chloro-5′-(5-chloro-2-methylphenyl)-3′-isopropyl-2′-(2-methoxy-5-methylphenyl)-3′H-spiro[dihydroindole-3,4′-pyrrolo[3,4-d]imidazole]-2,6′(5′H)-dione], the IC50 in assay [1] is 10.5 nM. Moreover, the pIC50 against MDM2 is 8.79.

`COc1ccc(N2C(=O)c3nc(-c4ccccc4OC)n(C(C)C)c3[C@@]23C(=O)Nc2cc(Cl)ccc23)cc1Cl` [Example S-63, (S)-6-chloro-5′-(3-chloro-4-methoxyphenyl)-3′-isopropyl-2′-(2-methoxyphenyl)-3′H-spiro[dihydroindole-3,4′-pyrrolo[3,4-d]imidazole]-2,6′(5′H)-dione]: in assay [1], the IC50 turned out to be 77.6 nM. The molecule also showed a pIC50 at MDM2 of 8.94.

Consider `COc1ccc(-c2nc3c(n2C(C)C)[C@@]2(C(=O)Nc4cc(Cl)ccc42)N(c2cc(Cl)ccc2C)C3=O)cc1` [Example S-64, (S)-6-chloro-5′-(5-chloro-2-methylphenyl)-3′-isopropyl-2′-(4-methoxyphenyl)-3′H-spiro[dihydroindole-3,4′-pyrrolo[3,4-d]imidazole]-2,6′(5′H)-dione], for which the IC50 in assay [1] came to 726 nM. On MDM2, this molecule showed a pIC50 of 7.93.

On to `COc1cc(N)ccc1-c1nc2c(n1C(C)C)[C@@]1(C(=O)Nc3cc(Cl)ccc31)N(c1cc(Cl)ccc1F)C2=O` [Example S-66, (S)-2′-(4-amino-2-methoxyphenyl)-6-chloro-5′-(5-chloro-2-fluorophenyl)-3′-isopropyl-3′H-spiro[dihydroindole-3,4′-pyrrolo[3,4-d]imidazole]-2,6′(5′H)-dione], for which the IC50 in assay [1] amounted to 39.6 nM. Further, on MDM2, the pIC50 was 8.82.

`COc1cc(N)ccc1-c1nc2c(n1C(C)C)[C@@]1(C(=O)Nc3cc(Cl)ccc31)N(c1cc(F)cc(Cl)c1)C2=O` [Example S-67, (S)-2′-(4-amino-2-methoxyphenyl)-6-chloro-5′-(3-chloro-5-fluorophenyl)-3′-isopropyl-3′H-spiro[dihydroindole-3,4′-pyrrolo[3,4-d]imidazole]-2,6′(5′H)-dione]: the IC50 in assay [1] worked out at 20.8 nM. The same molecule showed a pIC50 against MDM2 of 8.91.
